From paper PMC7059793, “Novel Chemical Scaffolds to Inhibit the Neutral Amino Acid Transporter B^0AT1 (SLC6A19), a Potential Target to Treat Metabolic Diseases” (Frontiers in Pharmacology, 2020)

Assays:
B^0AT1 = molecular target: T1, B^0AT1 (Homo sapiens, UniProt Q695T7); assay: Mode of inhibition: leucine uptake kinetics at three inhibitor concentrations, FLIPR, Eadie-Hofstee; assay type: cell-based; details: CHO-BC cells
T1 construct: expressed in transfected cells
T1 sequence (Q695T7 1-634): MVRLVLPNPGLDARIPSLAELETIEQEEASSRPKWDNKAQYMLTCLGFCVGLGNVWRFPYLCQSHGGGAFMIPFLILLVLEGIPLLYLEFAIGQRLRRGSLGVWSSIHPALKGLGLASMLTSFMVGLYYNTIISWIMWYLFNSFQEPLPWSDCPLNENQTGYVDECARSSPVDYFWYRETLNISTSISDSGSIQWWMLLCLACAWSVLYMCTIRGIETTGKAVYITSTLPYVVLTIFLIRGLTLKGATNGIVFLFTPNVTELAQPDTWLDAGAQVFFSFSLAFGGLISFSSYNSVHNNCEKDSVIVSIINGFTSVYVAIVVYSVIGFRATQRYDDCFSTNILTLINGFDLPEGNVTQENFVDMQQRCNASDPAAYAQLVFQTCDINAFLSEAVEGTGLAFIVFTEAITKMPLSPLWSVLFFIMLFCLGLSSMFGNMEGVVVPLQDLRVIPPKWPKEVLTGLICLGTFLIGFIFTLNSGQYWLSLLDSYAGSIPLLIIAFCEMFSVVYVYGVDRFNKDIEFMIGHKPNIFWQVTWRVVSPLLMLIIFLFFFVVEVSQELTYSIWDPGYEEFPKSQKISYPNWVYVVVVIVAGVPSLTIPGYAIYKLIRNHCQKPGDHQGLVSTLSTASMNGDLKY
T1 sequence (Q9HBJ8 15-222 partner): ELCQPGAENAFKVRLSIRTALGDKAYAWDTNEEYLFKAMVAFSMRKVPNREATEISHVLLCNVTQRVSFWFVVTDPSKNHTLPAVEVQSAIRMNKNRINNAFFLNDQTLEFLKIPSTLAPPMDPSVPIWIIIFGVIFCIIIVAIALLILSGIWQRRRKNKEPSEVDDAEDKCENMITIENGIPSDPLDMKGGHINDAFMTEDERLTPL
Description: To understand the mode of inhibition, we determined KM-values at three different inhibitor concentrations using FLIPR assay and plotted Eadie-Hofstee transformed data ( Figure 5 ). Fully parallel lines indicate a change of […], while fully converging lines (at x = 0; y = Vmax) indicate a change of KM only with increasing concentrations of the inhibitor. […] To rationalize the mode of inhibition, we performed docking studies using a homology model of B^0AT1 based on the outside-open conformation of LeuT. […] In the homology structure the two Na^+ are shown as yellow spheres. Both, LeuT Na^+-site 1 and -site 2 are conserved in B^0AT1, but only one site is used functionally. This is most likely site 1 as it binds the α-carboxyl-group of the amino acids ([O’mara et al., 2006]). […] Many transport inhibitors are substrate analogues that are too large to fit into the occluded substrate binding cavity, thereby blocking the conformational change required for transport ([Broer, 2018]). […] Instead the compounds preferred binding to different sites in the vestibule, including the proposed Substrate-binding site 2 ([Shi et al., 2008]), which was the preferred docking site for compound E4. In the outside open conformation, the volume of the binding site increases, encompassing an orthostatic binding site ( Figure 5H , orange), occupied by E4, E18, or the substrate and an allosteric binding site ( Figure 5H , blue), which is compatible with substrate binding.
Figure 5 Mechanistic aspects of B^0AT1 inhibitors. Inhibition of B^0AT1 by compounds E4 (A), E18 (B) and CB3 (C) (n = 3, e = 3) was determined by FLIPR assay in CHO-BC cells. To determine the mode of inhibition, the kinetic properties of leucine uptake were determined in the presence of three different inhibitor concentrations. Docking poses of compounds E4 (D), E18 (E) and CB3 (F) are shown for comparison. Amino acid side-chains of the binding pocket are shown in green, cosubstrate Na^+ 1 is shown in yellow (foreground), Na^+ 2 is only partially visible in the background and may not exist in B^0AT1. […]

ASCT2 (SLC1A5) = molecular target: T2, ASCT2 (SLC1A5) (Homo sapiens, UniProt Q15758); assay: Na+-dependent [14C]glutamine uptake in 143B cells; assay type: cell-based; details: inhibitor at 10 μM and 50 μM, 100 μM [14C]glutamine
T2 construct: endogenous in cells; host or cells: 143B TK- cells (human osteosarcoma)
T2 sequence (Q15758 1-541): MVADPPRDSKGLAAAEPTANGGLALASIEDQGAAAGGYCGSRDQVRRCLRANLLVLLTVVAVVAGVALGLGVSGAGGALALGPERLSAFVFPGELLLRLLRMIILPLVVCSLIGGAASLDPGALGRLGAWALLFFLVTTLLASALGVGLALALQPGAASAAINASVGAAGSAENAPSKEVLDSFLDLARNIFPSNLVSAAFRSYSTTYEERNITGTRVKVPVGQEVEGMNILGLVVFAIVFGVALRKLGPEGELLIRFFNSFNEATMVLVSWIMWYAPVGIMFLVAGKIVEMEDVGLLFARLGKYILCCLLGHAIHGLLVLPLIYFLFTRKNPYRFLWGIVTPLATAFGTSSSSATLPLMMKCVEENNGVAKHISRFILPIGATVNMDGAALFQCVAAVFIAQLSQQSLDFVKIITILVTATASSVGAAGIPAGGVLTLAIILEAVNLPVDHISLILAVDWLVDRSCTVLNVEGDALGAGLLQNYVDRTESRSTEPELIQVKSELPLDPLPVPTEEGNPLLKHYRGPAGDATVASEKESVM
Procedure: CHO-BC cells with passage numbers from 3 to 10 were used in radio-labelled uptake assays. Before the assay, the cells were seeded out in 35 mm dishes (Corning) and maintained for 48–72 h until reaching 80–90% confluence. To initiate transport, the culture medium was removed and the cells washed three times with HBSS + G. Subsequently, cells were incubated with HBSS + G, radiolabelled substrates (150 μM L-[U-^14C]leucine or 150 μM L-[U-^14C]isoleucine) and inhibitors as indicated in the figures or table in a 37°C water bath for 6 min. To terminate transport, cells were washed three times with ice-cold HBSS pH 7.5. For measuring sodium-independent uptake, NaCl in Hank’s buffer was replaced by NMDG-Cl. Cells were then harvested by homogenizing with 500 µl of 0.1 M HCl. An aliquot of 400 µl was used for scintillation counting and the remainder for protein quantification. To investigate inhibition of ASCT2, uptake of 100 μM [^14C]glutamine was measured in 143B cells in the absence and presence of inhibitor (at 10 μM and 50 μM). To measure inhibition of LAT1, uptake of [^14C]leucine was measured in HBSS + G in which NaCl was replaced by NMDG-Cl in 143B cells in the absence and presence of inhibitor (at 10 μM and 50 μM).
To investigate the specificity of the compounds further, we tested them in human 143B osteosarcoma cells, which we have extensively characterised previously and used for pharmacological analysis ([Broer et al., 2018]). Na^+-dependent glutamine transport in 143B cells is largely mediated by ASCT2 (SLC1A5). Na^+-independent transport of leucine, by contrast, is mediated entirely by LAT1.

Row | SMILES | Mode of inhibition (B^0AT1) | Inhibition of Na+-dependent glutamine uptake (ASCT2) (ASCT2 (SLC1A5))
1 | Cc1cc(C(=O)Nc2ccc(Cl)cc2C(F)(F)F)no1 [CB3] | more mixed model | failed to inhibit
2 | Cc1cc(OCC(=O)NC(C)C)cc(C)c1Cl [Compound E4] | largely competitive mode of inhibition | failed to inhibit
3 | COc1ccccc1Nc1nc2ccccc2s1 [Compound E18] | largely competitive mode of inhibition | failed to inhibit
